{"source": "patent US8476448B2", "about": "“Solid form of 4-[[(6-chloropyridin-3-yl)methyl](2,2-difluoroethyl)amino]furan-2(5H)-one” (Bayer Cropscience AG, priority 2009, dated 2013)", "assay": "Stability of the novel solid form on prolonged storage", "format": "physicochemical"}
{"smiles": "O=C1C=C(N(Cc2ccc(Cl)nc2)CC(F)F)CO1", "note": "[novel solid form, 4-[[(6-chloropyridin-3-yl)methyl](2,2-difluoroethyl)amino]furan-2(5H)-one]", "values": [{"measurement": "thermodynamic stability / conversion into another form", "value": "not converted into another form"}]}
